These results are taken from ChEMBL document CHEMBL1201862, “PubChem BioAssay data set” (2004).

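Dose response: 5 concentrations. Exposure: 48 h. Format: 96-well plates. Endpoint: linear interpolation; highest concentration if not reached. The concentration for 50% growth inhibition is given as GI50.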 Active and inactive are the calls of the source. No stated cut-off is given here; in the data, active = GI50 up to about 1.1 µM and inactive = higher.

Some test systems named below: KM-20L2; NCI-H23; HL-60; HCC 2998; EKVX; OVCAR-3; NCI-H460; RPMI-8226; ACHN; TK-10; OVCAR-5; SNB-19; SK-MEL-5; LOX IMVI.
Common to all, as to test: DTP human tumour cell line panel, 48 h

By GI50 is commonly meant the concentration giving 50% growth inhibition. `O=C(c1ccccc1)C(c1ccccc1)C1(O)C(=O)Nc2ccc(Br)cc21` (stereo not drawn): the GI50 with KM-20L2 is > 100 µM (inactive); in the assay with NCI-H23, 50.4 µM (inactive); in the assay with HL-60 it was 16.6 µM (inactive); with HCC 2998, > 100 µM (inactive); with EKVX, 68.2 µM (inactive); in the assay with OVCAR-3, 45.6 µM (inactive). In addition, the GI50 was > 100 µM (inactive) in the assay with NCI-H460; 17.9 µM (inactive) with RPMI-8226; > 100 µM (inactive) in the assay on ACHN; > 100 µM (inactive) with TK-10; > 100 µM (inactive) in the assay with OVCAR-5; > 100 µM (inactive) in the assay with SNB-19.

In the case of `O=C1N(c2ccc(Cl)cc2)C(=O)C2(SC=NN2Cc2ccccc2)N1c1ccc(Cl)cc1` (stereo not drawn), the GI50 was > 100 µM (inactive) with KM-20L2; > 100 µM (inactive) with SK-MEL-5; 8.24 µM (inactive) in the assay with NCI-H23; 7 µM (inactive) in the assay with HL-60; > 100 µM (inactive) in the assay with HCC 2998; > 100 µM (inactive) with EKVX. Also, the GI50 was 51.1 µM (inactive) in the assay on OVCAR-3; > 100 µM (inactive) in the assay on LOX IMVI; > 100 µM (inactive) in the assay on NCI-H460; 8.34 µM (inactive) with RPMI-8226; > 100 µM (inactive) with ACHN; > 100 µM (inactive) in the assay on TK-10. In the assay with SNB-19, the GI50 was > 100 µM (inactive).

As for `C/C(=N\NC(=S)NC(CCC(=O)O)C(=O)O)c1ccccn1` (stereo not drawn), the GI50 in the assay with KM-20L2, with SK-MEL-5, in the assay on NCI-H23, in the assay on HL-60, with HCC 2998 and in the assay on EKVX was > 100 µM (inactive) each time. Further, the GI50 in the assay on OVCAR-3, with LOX IMVI, in the assay with NCI-H460, in the assay with RPMI-8226, in the assay with ACHN and in the assay on TK-10 was > 100 µM (inactive) each time. In addition, the GI50 in the assay on OVCAR-5 and in the assay with SNB-19 was > 100 µM (inactive) each time.

For `O=C(Nc1ccccc1)OCc1nc2c([nH]1)C(=O)C=CC2=O`, the GI50 was 19.4 µM (inactive) in the assay on KM-20L2; 14.3 µM (inactive) with SK-MEL-5; 19.4 µM (inactive) with NCI-H23; 3.29 µM (inactive) in the assay with HL-60; 16.5 µM (inactive) in the assay on HCC 2998; 20.7 µM (inactive) in the assay with EKVX. Besides, the GI50 in the assay on OVCAR-3 was 16.7 µM (inactive); in the assay on LOX IMVI, 16.1 µM (inactive); in the assay with NCI-H460, 19.8 µM (inactive); with RPMI-8226 it was 18.7 µM (inactive); in the assay with ACHN it was 12.6 µM (inactive); in the assay on TK-10, 14 µM (inactive). Also, the GI50 is 22.2 µM (inactive) in the assay on OVCAR-5 and 13.8 µM (inactive) in the assay with SNB-19.

Consider `O=C(c1nc2ccc(Cl)cc2nc1O)C(O)c1ccc2c(c1)OCO2` (stereo not drawn), for which the GI50 with KM-20L2 was 74.5 µM (inactive); in the assay with NCI-H23 it was > 100 µM (inactive); with HL-60, 19.7 µM (inactive); in the assay on HCC 2998, > 100 µM (inactive); in the assay on EKVX, > 100 µM (inactive); in the assay with LOX IMVI it was 98.9 µM (inactive). Further, the GI50 was > 100 µM (inactive) with NCI-H460; 7.4 µM (inactive) in the assay on RPMI-8226; 65.3 µM (inactive) in the assay on ACHN; > 100 µM (inactive) in the assay with TK-10; > 100 µM (inactive) in the assay on OVCAR-5.

For the compound `Cc1c(C(=O)C/C(=N/NC(=O)C[N+](C)(C)C)C(=O)Nc2ccc(Cl)cc2)[n+]([O-])c2ccccc2[n+]1[O-]`, the GI50 in the assay on KM-20L2, in the assay with SK-MEL-5, with NCI-H23, with HL-60, with HCC 2998 and in the assay with EKVX was > 100 µM (inactive) throughout. Also, the GI50 in the assay with OVCAR-3, with LOX IMVI, with NCI-H460, in the assay with RPMI-8226, in the assay on ACHN and in the assay with TK-10 was > 100 µM (inactive) throughout. The GI50 in the assay on OVCAR-5 and in the assay on SNB-19 was > 100 µM (inactive) throughout.

Regarding `CC1=C2C(=CC(C)(C)C2O)C(=O)C(C)(O)C12CC2` (stereo not drawn), the 50% growth inhibitory concentration (GI50) is 0.00521 µM (active) in the assay with KM-20L2; 0.00567 µM (active) in the assay on SK-MEL-5; 0.00681 µM (active) with NCI-H23; 0.00345 µM (active) with HL-60; 0.00541 µM (active) in the assay with HCC 2998; 0.0356 µM (active) in the assay with EKVX. Moreover, the GI50 was 0.0112 µM (active) with OVCAR-3; 0.00478 µM (active) in the assay on LOX IMVI; 0.0018 µM (active) in the assay with NCI-H460; 0.00479 µM (active) in the assay with ACHN; 0.0216 µM (active) with TK-10; 0.0128 µM (active) in the assay on OVCAR-5. The 50% growth inhibitory concentration (GI50) in the assay with SNB-19 was 0.019 µM (active).

With `CC1(Cc2ccccc2)NC(=S)NC1=O` (stereo not drawn), the GI50 in the assay on KM-20L2, in the assay with NCI-H23, with HL-60, in the assay on HCC 2998, in the assay with EKVX and in the assay on LOX IMVI was > 100 µM (inactive) throughout. For the same compound, the GI50 in the assay on NCI-H460, in the assay on ACHN, in the assay on TK-10, with OVCAR-5 and in the assay on SNB-19 was > 100 µM (inactive) in each case.

As for `CCc1c(C#N)c(=O)[nH]c(=O)n1CCN1CCN(C(=O)NCCCCCCNC(=O)N2CCN(CCn3c(CC)c(C#N)c(=O)[nH]c3=O)CC2)CC1`, the GI50 with KM-20L2, in the assay on SK-MEL-5, in the assay with HL-60, in the assay with HCC 2998, in the assay on EKVX and in the assay with OVCAR-3 was > 100 µM (inactive) in each case. For the same compound, the GI50 in the assay with LOX IMVI, in the assay with NCI-H460, with RPMI-8226, in the assay on ACHN, in the assay on TK-10 and with SNB-19 was > 100 µM (inactive) each time.

Regarding `CSc1nc2c(nc(N)n2C2OC(CO)C(O)C(O)C2O)c(=O)[nH]1` (stereo not drawn), the GI50 in the assay with KM-20L2, in the assay on SK-MEL-5, with NCI-H23, in the assay on HL-60, with HCC 2998 and with EKVX was > 100 µM (inactive) each time. Also, the GI50 in the assay on OVCAR-3, in the assay with LOX IMVI, in the assay with NCI-H460, in the assay with ACHN, in the assay with TK-10 and in the assay on SNB-19 was > 100 µM (inactive) in each case.

As to `COc1cc(/C=C2\NC(=O)C3Cc4c(OC)c(C)c(OC)c(OC)c4C2N3C)c(OC)c(C)c1OC` (stereo not drawn), the GI50 in the assay on KM-20L2, with SK-MEL-5, with NCI-H23, in the assay on HL-60, in the assay on HCC 2998 and with EKVX was > 100 µM (inactive) throughout. In addition, the GI50 with OVCAR-3, in the assay on LOX IMVI, in the assay on ACHN, in the assay with TK-10, with OVCAR-5 and with SNB-19 was > 100 µM (inactive) in each case.
